The results in this text go back to US5969017A, “Methods of treating or preventing cardiac arrhythmia” (Merck & Co., Inc., priority 1997, dated 1999).

The test concerns the target T1, IKur in human atrial myocytes (Homo sapiens, UniProt P22460).
T1 construct: Human myocytes were isolated from specimens of right atrial appendage obtained from patients; endogenous in cells; host or cells: human atrial myocytes from right atrial appendage of patients undergoing cardiopulmonary bypass
Description: Voltage clamp measurement of IKur block (rested state, use-dependent, rate-dependent) in human atrial myocytes. In kind it is cell-based. Conditions: for inhibition at 0.03 µM / Rate-Dpdnt Ratio / Use-Dpdnt Ratio / inhibition at 0.1 µM / inhibition at 0.3 µM / inhibition at 1 µM: human atria; for Rate-Dpdnt Ratio: 3 Hz vs 1 Hz, last pulse, <1 = rate-dependent; for Use-Dpdnt Ratio: 10th vs 1st pulse @ 1 Hz, <1 = use-dependent; for selective blockade of IKur (in words): relative to other cardiac K+ channels. The text has this: B. Measurement of IKur in Human Atrial Myocytes
Isolation of Human Atrial Myocytes:
Human myocytes were isolated from specimens of right atrial appendage obtained from patients undergoing cardiopulmonary bypass, using a modification of the procedure described by Fermini B, Wang Z, Duan D and Nattel S., "Differences in rate dependence of transient outward current in rabbit and human atrium" Am. J. Physiol. […] All tissues were collected in accordance with Temple University School of Medicine Institutional guidelines. […] Tissue samples were quickly immersed in cold (0-4° C.) cardioplegia solution containing (in mM/L): 50 KH2 PO4, 8 MgSO4, 10 NaHCO3, 5 adenosine, 25 taurine, 140 glucose, and 100 mannitol, pH 7.4 and bubbled with 100% O2. […] The tissue was gently agitated by continuous bubbling with 100% O2 for 5 min. […] The supernatant was removed after 40 min and discarded. The chunks were then incubated in a solution of the same ionic composition but supplemented with only collagenase and […]. Microscopic examination of the medium was performed every 10-20 min to determine the number and quality of isolated cells. When the yield appeared maximal, the tissue chunks were suspended in a modified Kraftbruhe solution containing (in mM/L): 25 KCl, 10 KH2 PO4, 25 taurine, 0.5 EGTA, 22 glucose, 55 glutamic acid, and 0.1% bovine albumin, pH 7.3 (22-24° C.) and gently triturated using a large bore Pasteur pipette. The supernatant was collected in a 50 ml centrifuge tube. […] Cells were used within 2-24 hr after isolation.
A small aliquot of the solution containing the isolated human atrial myocytes was placed in a 1-ml chamber mounted on the stage of an inverted microscope. Five minutes were allowed for cell adhesion to the bottom of the chamber. To record IKur, human atrial myocytes were superfused with a solution of the same ionic composition as that used for Kv1.5. An alternative external solution was sometimes used in which NaCl was replaced with NMDG (formal name: N-methyl-d-glucamine) to inhibit INa.
Currents were elicited by 150 ms depolarizing test pulses to +40 mV from a holding potential of -50 mV to inactivate Ito and INa. The amplitude of IKur was measured as the amplitude of the time-dependentcurrent at the end of the test pulse, relative to the holding current level. […] All experiments were performed at room temperature (22-24° C.).
C. Measurement of Use-Dependent and Rate-Dependent Block.
Pulses were applied in 10 second long trains delivered after 30 second rest intervals at frequencies of 1 Hz (10 pulses) or 3 Hz (30 pulses). Percent block of the current is defined as the % decrease in the current amplitude produced by an agent during a given pulse relative to the control current amplitude for that pulse. Rested-state block is the block of the current during the first pulse in a train following the 30 sec rest period. Use-dependent block is block that occurs to a progessively greater extent with each successive depolarization in a train or sequence of pulses or depolarizations delivered at a given rate or frequency. Thus, during a train of 10 depolarizations at frequency of 1 Hz, use-dependent block is assessed as the ratio of the amount of block for the 10th pulse relative to block for the 1st pulse (rested state block) of the train. Rate-dependent block is block that occurs to a greater extent or preferentially at faster rates of depolarization or heart rates. Thus, rate-dependent block is assessed as the ratio of the amount of block of the current during the last pulse of the 10 sec train at 3 Hz vs. 1 Hz. Consequently, ratios of less than one (<1) are indicative of use-dependentand rate-dependent block and the lower the ratio the greater the degree of use and rate dependence.

Setting [1] is: 30 nM, 1st pulse @ 1 Hz, +40 mV from -50 mV, read-out: Average % Block, Rested State, 1st pulse.
The mark [2] stands for this setting: 30 nM, 10th pulse @ 1 Hz, read-out: Average % Block, Use-Dpdnt, 10th pulse.
Setting [3] is: 30 nM, 30th pulse @ 3 Hz, read-out: Average % Block, Rate-Dpdnt, 30th pulse.
[4] abbreviates: 100 nM, 1st pulse @ 1 Hz, read-out: Average % Block, Rested State, 1st pulse.
Where [5] appears, read: 100 nM, 10th pulse @ 1 Hz, read-out: Average % Block, Use-Dpdnt, 10th pulse.
The mark [6] stands for this setting: 100 nM, 30th pulse @ 3 Hz, read-out: Average % Block, Rate-Dpdnt, 30th pulse.

Where two headings read alike, the source gives them in different places.

T1 sequence (P22460 whole entry): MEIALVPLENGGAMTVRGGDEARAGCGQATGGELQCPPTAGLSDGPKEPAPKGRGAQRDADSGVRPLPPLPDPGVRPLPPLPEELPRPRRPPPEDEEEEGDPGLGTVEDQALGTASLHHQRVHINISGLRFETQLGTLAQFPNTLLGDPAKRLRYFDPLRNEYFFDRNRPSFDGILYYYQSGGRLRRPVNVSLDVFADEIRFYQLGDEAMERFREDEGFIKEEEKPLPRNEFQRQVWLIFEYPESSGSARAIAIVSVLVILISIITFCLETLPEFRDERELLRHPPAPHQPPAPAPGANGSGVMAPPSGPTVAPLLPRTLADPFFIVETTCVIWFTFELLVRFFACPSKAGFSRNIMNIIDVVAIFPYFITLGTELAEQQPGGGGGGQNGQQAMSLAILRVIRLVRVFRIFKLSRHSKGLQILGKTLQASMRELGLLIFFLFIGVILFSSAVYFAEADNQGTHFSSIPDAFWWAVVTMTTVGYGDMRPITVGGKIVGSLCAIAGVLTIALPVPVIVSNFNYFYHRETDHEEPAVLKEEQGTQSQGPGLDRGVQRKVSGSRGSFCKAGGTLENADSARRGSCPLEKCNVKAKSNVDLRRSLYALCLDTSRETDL

As a reminder, the IC50 is the concentration that gives 50% inhibition. For the molecule `COc1ccc(-n2nc(Sc3ccc(Cl)cc3)c(C)c(C#N)c2=O)cc1` [C, 6-(4-Chlorophenylthio)-2-(4-methoxyphenyl)-5-methyl-3-oxo-2,3-dihydropyridazine-4-carbonitrile], the inhibition at 0.03 µM by setting is: under setting [1], 35.7%; under setting [2], 43.2%; under setting [3], 42.9%. Moreover, the “Rate-Dpdnt Ratio” value by setting is: (30 nM) 1.01; (100 nM) 1.13. Besides, the “Use-Dpdnt Ratio” value reads like this: (30 nM) 0.83; (100 nM) 0.94. The inhibition at 0.1 µM under setting [4] is 63.8%, the inhibition at 0.1 µM under setting [5] was 67.9% and the inhibition at 0.1 µM under setting [6] was determined as 60.1%. Moreover, the half-inhibitory concentration (IC50) (first pulse of 10 at 1 Hz, +40 mV from -50 mV, read-out: Rested State IC50, IKur in Human Atrium) came to 130 nM. The “use-dependent block of IKur (in words)” value (human atrial myocytes) is “use-dependentblockade”. Further, where the note is “human atrial myocytes”, the “selective blockade of IKur (in words)” value is listed as “selective blockade”.

On to `CC1CCC(C(C)C)C(P(=O)(c2ccccc2)c2ccccc2)C1` (stereo not drawn) [A, (2-Isopropyl-5-methylcyclohexyl)diphenylphosphine oxide], for which the inhibition at 0.03 µM turned out to be 21.9% under setting [1], 33% under setting [2] and 48.4% under setting [3]. The inhibition at 0.1 µM is 35.6% under setting [4], 59.7% under setting [5] and 75.7% under setting [6]. Further, the “rate-dependent block of IKur (in words)” value (human atrial myocytes) is “strong rate-dependent profile”. Moreover, the “use-dependent block of IKur (in words)” value reads like this: (human atrial myocytes) “use-dependentblockade”; (human atrial myocytes, listed as (2-isopropyl-5-methylcyclohexyl)diphenyl-phosphine oxide) “strong use-dependent profile”.

Turning to `Cc1cc(C)c(CP(=O)(c2ccccc2)c2ccccc2)c(-c2ccc(F)c(C)c2)c1` [B, 2-(Diphenylphosphinylmethyl)-4'-fluoro-3,5,3'-trimethyl-biphenyl], the inhibition at 0.1 µM is 10.4% under setting [4], 17.8% under setting [5] and 11.6% under setting [6]. Also, the “Rate-Dpdnt Ratio” value came to 1.53 (100 nM) and 0.93 (300 nM). Besides, the “Use-Dpdnt Ratio” value by setting is: (100 nM) 0.58; (300 nM) 0.82. In addition, the inhibition at 0.3 µM by setting is: (300 nM, 1st pulse @ 1 Hz, read-out: Average % Block, Rested State, 1st pulse) 25.8%; (300 nM, 10th pulse @ 1 Hz, read-out: Average % Block, Use-Dpdnt, 10th pulse) 31.3%; (300 nM, 30th pulse @ 3 Hz, read-out: Average % Block, Rate-Dpdnt, 30th pulse) 33.8%. The “use-dependent block of IKur (in words)” value (human atrial myocytes) is recorded as “use-dependentblockade”. The “selective blockade of IKur (in words)” value (human atrial myocytes) is “selective blockade”.

As to `COc1ccc(-n2nc(Sc3ccc(C)cc3)c(C)c(C#N)c2=O)cc1` [D], the inhibition at 0.1 µM under setting [4] came to 61% and the inhibition at 0.1 µM under setting [5] was 68%. For the same molecule, the “Use-Dpdnt Ratio” value worked out at 0.90 (100 nM) and 1.02 (1000 nM). The inhibition at 1 µM runs as follows: (1000 nM, 1st pulse @ 1 Hz, read-out: Average % Block, Rested State, 1st pulse) 81.7%; (1000 nM, 10th pulse @ 1 Hz, read-out: Average % Block, Use-Dpdnt, 10th pulse) 80%. Further, where the note is “human atrial myocytes”, the “use-dependent block of IKur (in words)” value is “use-dependentblockade”. Also, where the note is “human atrial myocytes”, the “selective blockade of IKur (in words)” value is reported as “selective blockade”.
